Experimental data: patent publication US20260256808A1, “Istaroxime-Containing Intravenous Formulation for the Treatment of Pre-Cardiogenic Shock and Cardiogenic Shock” (Windtree Therapeutics, Inc., priority 2022, published 2026)
Entries after “also recorded” stand apart in the source; their conditions may differ.

Experiments:
[1] = tested on: patients with AHF and exhibiting pre-cardiogenic shock (SCAI stage B); assay: SEISMIC: randomized, double-blind, placebo-controlled study of 24 h istaroxime infusion in pre-cardiogenic shock; type: in vivo, human
Method: Pre-CS was defined as defined as systolic blood pressure (SBP)<90 mmHg without hypoperfusion, venous lactate >2 mmol/L and/or mechanical or inotropic support. The inclusion criteria included AHF-related SCAI stage B pre-CS, 18-85 years of age, an ongoing hospitalization for AHF, left ventricular ejection fraction <40%, persistent hypotension (SBP between 75 and 90 mmHg), heart rate of 75-150 bpm and no need at time of screening or planned use for 6 h thereafter of mechanical support or intravenous therapy to increase BR According to the stage B SCAI classification, patients with clinical signs of peripheral hypoperfusion, venous lactate >2 mmol/L and/or on mechanical support or treatment with intravenous vasodilators, inotropes or vasopressors were excluded. Other exclusion criteria were concomitant or planned treatment with oral digoxin (could be randomized if the plasma concentration of digoxin at screening was <0.5 ng/ml); acute coronary syndrome or stroke within the past 3 months; coronary artery bypass graft or percutaneous coronary intervention within the past month or planned in the next month; life-threatening ventricular arrhythmia or implantable cardioverter defibrillator shock within the past month; sustained ventricular tachycardia in the last 3 months or uncontrolled arrhythmia; fever >38° C.; estimated glomerular filtration rate (eGFR)[…]; serum potassium >5.3 or <3.5 mmol/L; stroke or transient ischaemic accident within the past 3 months; and acute respiratory distress syndrome.
The patients were randomized centrally, using an interactive response technology, to receive istaroxime or placebo at a ratio of 1:1. Study medication was supplied in uniquely-numbered kits containing identical vials of lyophilized powder (istaroxime plus lactose), reconstituted by adding 5 ml saline to the vial. Istaroxime was administered as a continuous infusion 1.0 μg/kg/min for 24 h. The infusion rate could be decreased at the discretion of the investigator based on the development of tolerability issues (such as nausea), significant bradycardia, or greater than desired BP elevation.
The primary efficacy endpoint was the area under the curve representing the change in SBP from baseline, start of study drug infusion, through 6 h (SBP AUC). The secondary endpoints included SBP AUC through 24 h; changes from baseline in SBP (particularly at 6 and 24 h), diastolic blood pressure (DBP) and mean arterial pressure (MAP); changes from baseline in heart rate (HR); treatment failure score (based on death, circulatory, respiratory, or renal mechanical support or intravenous inotrope or vasopressor treatment, and changes in SBP); treatment failure defined as death or need for circulatory, respiratory, or renal mechanical support or intravenous inotrope or vasopressor treatment; increase from baseline in SBP >5% and/or >10 mmHg; changes in quality of life measured by the EuroQol 5 Dimension 5 Level (EQ-5D-5L); change from baseline to 24 h in echocardiography parameters; changes in troponin and N-terminal pro-B-type natriuretic peptide (NT-proBNP); hospital readmission for heart failure and for any cause by day 30; in-hospital worsening heart failure to day 5; and length of hospital stay. In-hospital worsening heart failure was defined as worsening signs and/or symptoms of heart failure since the previous assessment that required an intensification of intravenous therapy for heart failure or mechanical ventilatory, renal, or circulatory support. The safety endpoints were assessed throughout the study and included the incidence of adverse events; changes in vital signs and in 12-lead electrocardiogram (ECG) parameters; incidence of clinically or haemodynamically significant episodes of supraventricular or ventricular arrhythmias detected by continuous ECG monitoring; standard laboratory parameters; renal function measures; cardiac troponin I or T; and mortality through day 30. […]

[2] = tested on: patients hospitalized with ADHF and reduced LV systolic function; settings: 0.5-1.0-1.5 μg/kg/min, cited from earlier work
patients with ADHF = settings: cited from earlier work
[3] = 24 h Post-Treatment, adjusted least square mean change
[4] = 24 h Post-Treatment, adjusted least square mean change, listed as istaroxime
[5] = 24 h Post-Treatment, mean, n = 29

## C[C@]12CCC(=NOCCN)C[C@@H]1C(=O)C[C@@H]1[C@@H]2CC[C@]2(C)C(=O)CC[C@@H]12 [Istaroxime]
[1]; 6 h after infusion start, (SE), p=0.045 vs placebo
  adjusted SBP increase at 6 h: 12.3 (SE 1.71) mmHg
[1]; 24 h Post Treatment
  Mitral Regurgitation Mild, number of patients: 11
  Mitral Regurgitation Mild, share of patients: (39%)
  Mitral Regurgitation Moderate, number of patients: 16
  Mitral Regurgitation Moderate, share of patients: (57%)
  Mitral Regurgitation None, number of patients: 1
  Mitral Regurgitation None, share of patients: (4%)
[1]; [3]
  Cardiac Index, Change from Baseline: 0.156 L/min/m^2
  Cardiac Output, Change from Baseline: 0.23 L/min
  E/A Ratio, Change from Baseline: −0.380
  E/Ea Ratio, Change from Baseline: −0.615
  Ejection Time, Change from Baseline: -2.807 ms
  Inferior Vena Cava Diameter, Change from Baseline: −2.503 mm
  Left Atrial Area, Change from Baseline: −1.817 cm^2
  Left Atrial Volume, Change from Baseline: -7.440 mL
  Left Ventricular Ejection Fraction, Change from Baseline: 2.678%
  Left Ventricular End-Diastolic Diameter, Change from Baseline: −0.668 mm
  Left Ventricular End-Diastolic Volume, Change from Baseline: -6.501 mL
  Left Ventricular End-Systolic Diameter, Change from Baseline: −0.719 mm
  Left Ventricular End-Systolic Volume, Change from Baseline: -8.692 mL
  Pulmonary Artery Systolic Pressure, Change from Baseline: −7.084 mmHg
  Stroke Volume Index, Change from Baseline: 4.001 ml/m^2
  Tricuspid Annular Plane Systolic Excursion, Change from Baseline: 0.0860 mm
[1]; [4]
  Cardiac Index, Change from Baseline: 0.16 ± 0.1 L/min/m^2
  Left Atrial Area, Change from Baseline: −1.8+0.5 cm^2
  Left Ventricular End-Diastolic Volume, Change from Baseline: −6.5+4.9 ml
  Left Ventricular End-Systolic Volume, Change from Baseline: −8.7+4.2 ml
[1]; [5]
  Cardiac Index, Observed: 2.1 L/min/m^2
  Cardiac Output, Observed: 3.93 L/min
  E/A Ratio, Observed: 1.5
  E/Ea Ratio, Observed: 12.2
  Ejection Time, Observed: 219.0 ms
  Inferior Vena Cava Diameter, Observed: 19.5 mm
  Left Atrial Area, Observed: 27.1 cm^2
  Left Atrial Volume, Observed: 95.2 mL
  Left Ventricular Ejection Fraction, Observed: 29.5%
  Left Ventricular End-Diastolic Diameter, Observed: 61.3 mm
  Left Ventricular End-Diastolic Volume, Observed: 194.3 mL
  Left Ventricular End-Systolic Diameter, Observed: 52.8 mm
  Left Ventricular End-Systolic Volume, Observed: 135.7 mL
  Pulmonary Artery Systolic Pressure, Observed: 36.8 mmHg
  Stroke Volume Index, Observed: 28.3 ml/m^2
  Tricuspid Annular Plane Systolic Excursion, Observed: 15.9 mm
[1]; 24 h after infusion start, (SE), p=0.543 vs placebo
  adjusted change in SBP at 24 h: 17.1 (SE 2.36) mmHg
[1]; FIG. 3C, up to 96 h, persisting beyond the 24 h of drug administration
  change in DBP: increases were noted
[1]; FIG. 4A, persisting beyond the 24 h of drug administration
  change in MAP: increases were noted
[1]; infusion start to hour 6, istaroxime iv infusion 24 h, adjusted mean (SE), p=0.017 vs placebo
  adjusted mean 6 h AUC of change in SBP from baseline: 53.1 (SE 6.88) mmHg·h
[1]; infusion start to hour 24, adjusted mean (SE), p=0.025 vs placebo
  adjusted mean 24 h SBP AUC: 291.2 (SE 27.5) mmHg·h
[1]; istaroxime 53.1 vs placebo 30.9 mmHg·h
  increase of adjusted mean 6 h SBP AUC versus placebo: 72%
[1]; istaroxime 291.2 vs placebo 208.7 mmHg·h
  increase of adjusted mean 24 h SBP AUC versus placebo: 40%
[1]; patients with pre-cardiogenic shock
  effect on heart rate / pulse: without effects on pulse; also recorded: not by increasing the heart rate
[2]; 6-hour infusion
  HR during infusion: tended to decrease
  SBP during infusion: slightly increased in a dose-dependent manner
[2]; after 6 h infusion, vs placebo, plateaued after 3 hours
  change from baseline in PCWP: dose-dependent improvements in PCWP
Patients with ADHF; 0.5 μg/kg/min and 1.0 μg/kg/min infused for up to 24 hours, vs placebo
  E/Ea ratio: an improvement in both treatment groups
Patients with ADHF; measured after 6 hours of infusion
  diastolic function parameters: significant improvements for most of the diastolic function parameters
